Patent US20140221361A1, “C-19 MODIFIED TRITERPENOIDS WITH HIV MATURATION INHIBITORY ACTIVITY” (priority 2013, published 2014)

System: recombinant NL4-3 virus (Renilla luciferase in nef, Gag P373S)
Assay: HIV cell culture assay (luciferase reporter, MT-2 cells)
Type: cell-based, HIV-1
Details: luciferase activity, serial dilutions of inhibitor
Protocol: MT-2 cells and 293T cells were obtained from the NIH AIDS Research and Reference Reagent Program. MT-2 cells were propagated in RPMI 1640 media supplemented with 10% heat inactivated fetal bovine serum, […]. The 293T cells were propagated in DMEM media supplemented with 10% heat inactivated fetal bovine serum (FBS), 100 units/ml penicillin G and 100 µg/ml streptomycin. The proviral DNA clone of NL4-3 was obtained from the NIH AIDS Research and Reference Reagent Program. A recombinant NL4-3 virus, in which a section of the nef gene from NL4-3 was replaced with the Renilla luciferase gene, was used as a reference virus. In addition, residue Gag P373 was converted to P373S. Briefly, the recombinant virus was prepared by transfection of the altered proviral clone of NL4-3. Transfections were performed in 293T cells using LipofectAMINE PLUS from Invitrogen (Carlsbad, Calif.), according to manufacturer's instruction. The virus was titered in MT-2 cells using luciferase enzyme activity as a marker. Luciferase was quantitated using the Dual Luciferase kit from Promega (Madison, Wis.), with modifications to the manufacturer's protocol. The diluted Passive Lysis solution was pre-mixed with the re-suspended Luciferase Assay Reagent and the re-suspended Stop & Glo Substrate (2:1:1 ratio). Fifty (50) μL of the mixture was added to each aspirated well on assay plates and luciferase activity was measured immediately on a Wallac TriLux (Perkin-Elmer). Antiviral activities of inhibitors toward the recombinant virus were quantified by measuring luciferase activity in cells infected for 4-5 days with NLRluc recombinants in the presence serial dilutions of the inhibitor.

[1] = Renilla, NL43, MT-2 cells infected for 4-5 days with NLRluc recombinants
[2] = MT-2 cells infected for 4-5 days with NLRluc recombinants

| SMILES | EC50 [1] [nM] | EC50 [2] [nM] |
| --- | --- | --- |
| CC(=NO)[C@@H]1CC[C@]2(NCCN3CCS(=O)(=O)CC3)CC[C@]3(C)[C@H](CC[C@@H]4[C@@]5(C)CC=C(c6ccc(C(=O)O)cc6)C(C)(C)[C@@H]5CC[C@]43C)[C@@H]12 (single isomer, unassigned) [Example B14] | 3.75 |  |
| CC(CN1CCOCC1)[C@@H]1CC[C@]2(NCCN3CCS(=O)(=O)CC3)CC[C@]3(C)[C@H](CC[C@@H]4[C@@]5(C)CC=C(c6ccc(C(=O)O)cc6)C(C)(C)[C@@H]5CC[C@]43C)[C@@H]12 (single isomer, unassigned) [Example B16] | 0.827 |  |
| CC(CN1CCS(=O)(=O)CC1)[C@@H]1CC[C@]2(NCCN3CCS(=O)(=O)CC3)CC[C@]3(C)[C@H](CC[C@@H]4[C@@]5(C)CC=C(c6ccc(C(=O)O)cc6)C(C)(C)[C@@H]5CC[C@]43C)[C@@H]12 (single isomer, unassigned) [Example B18] | 1.57 |  |
| CC(N)[C@@H]1CC[C@]2(NCCN3CCS(=O)(=O)CC3)CC[C@]3(C)[C@H](CC[C@@H]4[C@@]5(C)CC=C(c6ccc(C(=O)O)cc6)C(C)(C)[C@@H]5CC[C@]43C)[C@@H]12 (single isomer, unassigned) [Example B19] | 30 |  |
| CC([C@@H]1CC[C@]2(NCCN3CCS(=O)(=O)CC3)CC[C@]3(C)[C@H](CC[C@@H]4[C@@]5(C)CC=C(c6ccc(C(=O)O)cc6)C(C)(C)[C@@H]5CC[C@]43C)[C@@H]12)N(C)C (single isomer, unassigned) [Example B39] |  | 4.33 |
| CC([C@@H]1CC[C@]2(NCCN3CCS(=O)(=O)CC3)CC[C@]3(C)[C@H](CC[C@@H]4[C@@]5(C)CC=C(c6ccc(C(=O)O)cc6)C(C)(C)[C@@H]5CC[C@]43C)[C@@H]12)N(C)C (single isomer, unassigned) [Example B40] |  | 40 |
| CC(N)[C@@H]1CC[C@]2(NCCN3CCS(=O)(=O)CC3)CC[C@]3(C)[C@H](CC[C@@H]4[C@@]5(C)CC=C(c6ccc(C(=O)O)cc6)C(C)(C)[C@@H]5CC[C@]43C)[C@@H]12 (single isomer, unassigned) [Example B41] |  | 40 |
| C=C(CNCCN1CCOCC1)[C@@H]1CC[C@]2(C(=O)O)CC[C@]3(C)[C@H](CC[C@@H]4[C@@]5(C)CC=C(c6ccc(C(=O)O)cc6)C(C)(C)[C@@H]5CC[C@]43C)[C@@H]12 [Example 1, (1R,3aS,5aR,5bR,7aR,11aS,11bR,13aR,13bS)-9-(4-carboxyphenyl)-5a,5b,8,8,11a-pentamethyl-1-(3-(2-morpholinoethylamino)prop-1-en-2-yl)-2,3,3a,4,5,5a,5b,6,7,7a,8,11,11a,11b,12,13,13a,13b-octadecahydro-1H-cyclopenta[a]chrysene-3a-carboxylic acid] | 40 |  |
| C=C(CNCCO)[C@@H]1CC[C@]2(C(=O)O)CC[C@]3(C)[C@H](CC[C@@H]4[C@@]5(C)CC=C(c6ccc(C(=O)O)cc6)C(C)(C)[C@@H]5CC[C@]43C)[C@@H]12 [Example 2, (1R,3aS,5aR,5bR,7aR,11aS,11bR,13aR,13bS)-9-(4-carboxyphenyl)-1-(3-(2-hydroxyethylamino)prop-1-en-2-yl)-5a,5b,8,8,11a-pentamethyl-2,3,3a,4,5,5a,5b,6,7,7a,8,11,11a,11b,12,13,13a,13b-octadecahydro-1H-cyclopenta[a]chrysene-3a-carboxylic acid] | 140 |  |
| C=C(CN(C)C)[C@@H]1CC[C@]2(C(=O)O)CC[C@]3(C)[C@H](CC[C@@H]4[C@@]5(C)CC=C(c6ccc(C(=O)O)cc6)C(C)(C)[C@@H]5CC[C@]43C)[C@@H]12 [Example 3, (1R,3aS,5aR,5bR,7aR,11aS,11bR,13aR,13bS)-9-(4-carboxyphenyl)-1-(3-(dimethylamino)prop-1-en-2-yl)-5a,5b,8,8,11a-pentamethyl-2,3,3a,4,5,5a,5b,6,7,7a,8,11,11a,11b,12,13,13a,13b-octadecahydro-1H-cyclopenta[a]chrysene-3a-carboxylic acid] | 100 |  |
| C=C(CN(C)CCN(C)C)[C@@H]1CC[C@]2(C(=O)O)CC[C@]3(C)[C@H](CC[C@@H]4[C@@]5(C)CC=C(c6ccc(C(=O)O)cc6)C(C)(C)[C@@H]5CC[C@]43C)[C@@H]12 [Example 4, (1R,3aS,5aR,5bR,7aR,11aS,11bR,13aR,13bS)-9-(4-carboxyphenyl)-1-(3-((2-(dimethylamino)ethyl)(methyl)amino)prop-1-en-2-yl)-5a,5b,8,8,11a-pentamethyl-2,3,3a,4,5,5a,5b,6,7,7a,8,11,11a,11b,12,13,13a,13b-octadecahydro-1H-cyclopenta[a]chrysene-3a-carboxylic acid] | 1.42 |  |
| C=C(CNCCN(C)C)[C@@H]1CC[C@]2(C(=O)O)CC[C@]3(C)[C@H](CC[C@@H]4[C@@]5(C)CC=C(c6ccc(C(=O)O)cc6)C(C)(C)[C@@H]5CC[C@]43C)[C@@H]12 [Example 5, (1R,3aS,5aR,5bR,7aR,11aS,11bR,13aR,13bS)-9-(4-carboxyphenyl)-1-(3-(2-(dimethylamino)ethylamino)prop-1-en-2-yl)-5a,5b,8,8,11a-pentamethyl-2,3,3a,4,5,5a,5b,6,7,7a,8,11,11a,11b,12,13,13a,13b-octadecahydro-1H-cyclopenta[a]chrysene-3a-carboxylic acid] | 160 |  |
| C=C(CNCCC(=O)O)[C@@H]1CC[C@]2(C(=O)O)CC[C@]3(C)[C@H](CC[C@@H]4[C@@]5(C)CC=C(c6ccc(C(=O)O)cc6)C(C)(C)[C@@H]5CC[C@]43C)[C@@H]12 [Example 6, (1R,3aS,5aR,5bR,7aR,11aS,11bR,13aR,13bS)-1-(3-(2-carboxyethylamino)prop-1-en-2-yl)-9-(4-carboxyphenyl)-5a,5b,8,8,11a-pentamethyl-2,3,3a,4,5,5a,5b,6,7,7a,8,11,11a,11b,12,13,13a,13b-octadecahydro-1H-cyclopenta[a]chrysene-3a-carboxylic acid] | 4000 |  |
| C=C(CN(C)C)[C@@H]1CC[C@]2(C(=O)NCCN(C)C)CC[C@]3(C)[C@H](CC[C@@H]4[C@@]5(C)CC=C(c6ccc(C(=O)O)cc6)C(C)(C)[C@@H]5CC[C@]43C)[C@@H]12 [Example 7, 4-((1R,3aS,5aR,5bR,7aR,11aS,11bR,13aR,13bS)-3a-(2-(dimethylamino)ethylcarbamoyl)-1-(3-(dimethylamino)prop-1-en-2-yl)-5a,5b,8,8,11a-pentamethyl-2,3,3a,4,5,5a,5b,6,7,7a,8,11,11a,11b,12,13,13a,13b-octadecahydro-1H-cyclopenta[a]chrysen-9-yl)benzoic acid] | 0.54 |  |
| C=C(CN(C)CCN(C)C)[C@@H]1CC[C@]2(C(=O)NCCN(C)C)CC[C@]3(C)[C@H](CC[C@@H]4[C@@]5(C)CC=C(c6ccc(C(=O)O)cc6)C(C)(C)[C@@H]5CC[C@]43C)[C@@H]12 [Example 8, 4-((1R,3aS,5aR,5bR,7aR,11aS,11bR,13aR,13bS)-1-(3-((2-(dimethylamino)ethyl)(methyl)amino)prop-1-en-2-yl)-3a-(2-(dimethylamino)ethylcarbamoyl)-5a,5b,8,8,11a-pentamethyl-2,3,3a,4,5,5a,5b,6,7,7a,8,11,11a,11b,12,13,13a,13b-octadecahydro-1H-cyclopenta[a]chrysen-9-yl)benzoic acid] | 1.49 |  |
| C=C(CNCCN(C)C)[C@@H]1CC[C@]2(C(=O)NCCC(=O)O)CC[C@]3(C)[C@H](CC[C@@H]4[C@@]5(C)CC=C(c6ccc(C(=O)O)cc6)C(C)(C)[C@@H]5CC[C@]43C)[C@@H]12 [Example 9, 4-((1R,3aS,5aR,5bR,7aR,11aS,11bR,13aR,13bS)-3a-(2-carboxyethylcarbamoyl)-1-(3-(2-(dimethylamino)ethylamino)prop-1-en-2-yl)-5a,5b,8,8,11a-pentamethyl-2,3,3a,4,5,5a,5b,6,7,7a,8,11,11a,11b,12,13,13a,13b-octadecahydro-1H-cyclopenta[a]chrysen-9-yl)benzoic acid] | 90 |  |
| C=C(CN(C)C(=O)CCC(=O)O)[C@@H]1CC[C@]2(C(=O)NCCC(=O)O)CC[C@]3(C)[C@H](CC[C@@H]4[C@@]5(C)CC=C(c6ccc(C(=O)O)cc6)C(C)(C)[C@@H]5CC[C@]43C)[C@@H]12 [Example 10, 4-((1R,3aS,5aR,5bR,7aR,11aS,11bR,13aR,13bS)-1-(3-(3-carboxy-N-methylpropanamido)prop-1-en-2-yl)-3a-(2-carboxyethylcarbamoyl)-5a,5b,8,8,11a-pentamethyl-2,3,3a,4,5,5a,5b,6,7,7a,8,11,11a,11b,12,13,13a,13b-octadecahydro-1H-cyclopenta[a]chrysen-9-yl)benzoic acid] | 2000 |  |
